Each block holds one molecule with its values, some of them ahead of it.
Legend:
[1] = system: mouse model for myocardial ischemia; assay: Mouse model of myocardial ischemia by coronary ligation: infarct size and 8-OH-dG oxidative damage; format: in vivo, Male CH3 mice; conditions: single i.p. dose 15 min after coronary ligation, 45 min ischemia; for reduction of size of infarction (% of total LV wall): vs vehicle-control
Method: (§1) Complete LAD coronary artery ligation was performed as follows. Male CH3 mice (8-10 weeks old, weighing 25-30 g) were intubated and anesthesized with a mixture of O2/isoflurane and mechanically ventilated (rate 90 breaths/min, tidal volume 0.1 mL). Rectal temperature was continuously monitored throughout the surgery and maintained within 37-38° C. using a heat pad and heat lamp. An anterior thoracotomy was performed; the heart was exposed and the LAD coronary artery was occluded with an intramural stitch (7-0 silk suture; consistent ligation of the left coronary artery as it emerges from under the left atrium) for 45 minutes. Success of complete coronary ligation was verified by electrocardiographic visualization of the ST-elevation-MI pattern that was monitored by high frequency ultrasounds with the Vevo2100 from Visualsonics and by the visualization of a pale, hypokinetic ventricle distal to the site of occlusion.
Ischemia was continued for another 30 min after administration of the single dose (i.e. altogether 45 min of ischemia), then mice were sacrificed and the heart was carefully excised for infarct size analysis.
(§2) Infarct size was determined by morphometric analysis. For this purpose, all mouse hearts were immersed in fixative solution (4% paraformaldehyde), embedded in OCT compound and cross-sectioned from apex to base (10 μm thick sections 200 μm distanced). Sections were stained with haematoxylin and eosin and morphometric infarct size analysis was determined using image analysis software (ImageJ, NIH). Infarct size was calculated by the sum of myocardial infarct areas between sections and expressed as a percentage of total LV wall. Three measurements per section were determined.
In addition, myocardial oxidative damage was also assessed. For this purpose, ischemic myocardial tissue was cut into 5-μm-thick slices for 8-OH-dG (Abcam ab48508) staining, a measurement indicative of oxidative stress-induced DNA-damage. Staining was calculated by a single blinded observer from an average of 5-fields/animal as % of stained area. Images were captured by Nikon Eclipse 80i microscope and digitized by Retiga 1300i Fast camera.

[2] = system: mouse model of myocardial ischemia; assay: Mouse coronary ligation model with AMPK inhibitor given before atorvastatin; format: in vivo, mice; conditions: Compound C 30 mg/kg i.p. prior to atorvastatin 0.3 mg/kg at 15 min of ischemia; 45 min ischemia
Method: as §1
as §2, with “For this purpose, all mouse hearts were immersed in fixative solution (4% paraformaldehyde), embedded in OCT compound and cross-sectioned from apex to base (10 μm thick sections 200 μm distanced).” left out
In addition, myocardial oxidative damage was also assessed. […]

[3] = system: RhoA; assay: RhoA total and cytosolic/membrane fractions in ischemic myocardium by Western blot; format: in vivo, pigs
Method: After the ischemic period, the animals' hearts were arrested with potassium chloride and rapidly excised. […] In addition, the separation of the membrane and cytosolic fractions was performed by a modification of the lysis buffer protocol. Briefly, tissue powder was homogenized (1 mol/L NaCl, 20 mmol/L Tris pH 7.4, 1 mmol/L DTT and protease inhibitors) and centrifuged. The supernatant was collected (referred to as the cytosolic fraction) and pellets were resuspended, and the membrane proteins were extracted by incubation in 500 mmol/L Tris-HCl pH 7.4, 20% sodium dodecyl sulfate, 100 mmol/L sodium orthovanadate, and protease inhibitors. The extract was centrifuged and the supernatant was collected as the membrane fraction.
Protein concentration (in total myocardial tissue, in the cytoplasm fraction and in the membrane fraction) was quantified by the Pierce method. RhoA (Santa Cruz) was determined in total and cytosolic and membrane fractions of the ischemic cardiac tissue of all animals by Western Blot analysis. The intensity of the Western blot bands was detected with Chemi-Doc (Bio-Rad) and they were quantified with the Quantity one Software (Bio-Rad). Intensities are expressed in arbitrary units (AU).

[4] = system: AMPK; assay: AMPK activation (P-AMPK Thr172 / total AMPK) in pig myocardium by Western blot; conditions: for levels of P-AMPK: vs controls
[5] = system: hypercholesterolemic pigs with myocardial ischemia; assay: Neutrophil infiltration (anti-Neutrophil Elastase staining) in ischemic myocardium of hypercholesterolemic pigs; format: in vivo; conditions: single i.v. dose 15 min after onset of ischemia, vs controls
Method: To this end, ischemic myocardial tissue of all hypercholesterolemic pigs included in Example 12 was obtained, embedded in OCT, and stained for neutrophils detection (anti-Neutrophil Elastase; Abcam). Staining was calculated by a single blinded observer from an average of 5-fields/animal as % of stained area. Images were captured by Nikon Eclipse 80i microscope and digitized by Retiga 1300i Fast camera.

[6] = system: swine model of myocardial ischemia; conditions: 0.3 mg/kg i.v. at 15 min of ischemia
From the text: Cardiac rhythm, arterial oxymetry, and arterial pressure were continuously monitored during the procedure. Just before starting the procedure a perfusion of amiodarone and lidocaine was initiated as prophylaxis for malignant left ventricular arrhythmias. All animals of the study were subjected to the same antiarrhythmic pharmacological approach allowing a direct comparison between the groups. By percutaneous approach and fluoroscopy guidance ischemia was induced by complete coronary balloon occlusion of the mid-left anterior descending coronary artery. Contrast angiographies were performed to ensure total coronary occlusion.
Control animals were given intravenous placebo (saline) at 15 min of ischemia. Blood samples (serum) for further assessment of biomarkers of cardiac damage were taken at baseline (i.e. before MI induction or at time=0 min), and at 30 min, 60 min and 90 min after MI induction (ischemia).
Upon taking the 90 min blood sample, the pigs were sacrificed without reperfusion to obtain myocardial tissue for molecular studies and histology.
The concentration of IMA (Ischemic Modified Albumin), CFABP (Cardiac Fatty Acid Binding Protein) and Myoglobin was determined by the respective pig ELISA kits in the blood samples taken 30 min, 60 min and 90 min after MI induction and compared to their baseline values (prior to ischemia induction). These proteins were chosen based on the rationale that they are early markers for cardiac damage assessment due to ischemia.

[7] = system: MCP-1/CCL2; assay: MCP-1/CCL2 mRNA and protein expression in pig myocardium; format: in vivo, pigs
Method: The myocardium of pigs included in Example 1 and Example 2 was obtained, pulverized and processed with Tripure or lyses buffer for mRNA and protein isolation as detailed in Example 5 and Example 6, respectively. Both the mRNA levels and protein expression of MCP-1 were assessed. The threshold cycle (Ct) values were determined and normalized to the housekeeping gene 18 SrRNA in order to adjust for equal amounts of RNA whereas β-actin was used as protein loading control.

[8] = system: caspase-3; assay: Caspase-3 activation (cleaved / total caspase-3) in pig myocardium by Western blot; format: in vivo, pigs
Method: Myocardial tissue of all pigs included in Example 1 and Example 2 was obtained, pulverized and processed with lysis buffer for protein isolation as detailed in Example 6. Protein was quantified by the Pierce method and Western Blot analysis was performed to assess the levels of phosphorylated p53 (Ser15), total p53, cleaved caspase-3 and total caspase-3. The ratios phosphorylated p53/total p53 and cleaved Casp3/total caspase3 were calculated to ascertain how much of protein was activated.

[9] = system: hypercholesterolemic pigs with myocardial ischemia; assay: Hypercholesterolemic pigs, 90 min LAD balloon occlusion: early cardiac damage markers; format: in vivo; conditions: 0.3 mg/kg i.v. at 15 min of ischemia
Method: To this end, 14 pigs were fed for 10 days a Western-type hypercholesterolemic diet [20%-saturated fat (beef tallow), 2%-cholesterol, 1%-cholic acid]. This hyperlipidemic diet contains 24.82% proteins, 64.20%of carbohydrates, 10.98% of fats and 16,834.7 kJ.
After this 10 day diet period animals underwent a closed-chest 90 min mid-left anterior descending (LAD) coronary balloon occlusion and the same experimental design described in Example 1.

[10] = system: rat model for ischemia; assay: Rat model of myocardial infarction by coronary ligation: scar size 30 days after ischemia; format: in vivo, male SD rats; conditions: single dose 0.3 mg/kg 15 min after onset of ischemia; 30 days post-ischemia induction; vs vehicle-controls
Method: The study was performed in male SD rats (8-10 weeks old, weighing 250-300 g; Jackson Laboratory). MI was induced by LAD coronary artery ligation for 45 min. […] Afterwards hearts were carefully excised for morphometric assessment of infarct size.

[11] = system: eNOS; assay: eNOS activation (P-eNOS Ser1177 / total eNOS) in pig myocardium by Western blot; format: in vivo, pigs; conditions: ischemic myocardium
From the text: (P-eNOS) or activated eNOS.

[12] = system: TLR4, TF and MCP-1 in PBMC; assay: TLR4, TF and MCP-1 expression in circulating PBMC of ischemic pigs; format: in vivo
Method: Blood samples were also collected in EDTA at baseline (prior to ischemia) and after 90 min of ischemia from the femoral artery for PBMC isolation by the Ficoll method. To this end, 20 ml of blood were collected into EDTA tubes at three tested time-points (0, 30, and 90 min) in all animals. All blood samples were immediately subjected to Ficoll-paque Plus (Amersham Biosciences) density gradient centrifugation to isolate PBMCs. Samples were counted and then directly frozen in liquid nitrogen and stored at −80° C. until mRNA and protein isolation as described in Example 5 and Example 6. The mRNA expression level of the inflammatory markers related to innate immunity TLR4 (Toll-like receptor 4) and MCP-1, as well as […] (tissue factor) were determined by Real Time PCR analyses whereas protein expression of MCP-1 was also assessed. The threshold cycle (Ct) values were determined and normalized to the housekeeping gene 18SrRNA in order to adjust for equal amounts of RNA whereas Ponceau red was used for protein loading control.

[13] = system: pig model of ischemia and reperfusion; assay: Pig model of ischemia and reperfusion (hypercholesterolemic diet, 90 min occlusion, 2.5 h reperfusion); format: in vivo, pigs; conditions: 0.3 mg/kg i.v. after 75 min of ischemia
Method: Pigs were fed a hypercholesterolemic diet as in Example 11. After this 10-day diet period animals underwent a closed-chest 90 min mid-left anterior descending (LAD) coronary balloon occlusion. After 75 min of ischemia animals were randomized to intravenous infusion (femoral vein) of an active β-hydroxy acid derivative of simvastatin (R—OH—S; 0.3 mg/kg; n=12) or vehicle (0.9% NaCl; n=12). At minute 90, the balloon was deflated to achieve coronary artery reperfusion. Animals were reperfused for 2.5 h. Infarct size was determined morphometrically by Evan's Blue staining. To that end, 2.5 h post-reperfusion Evan's Blue dye was injected in the anesthetized pigs through the left atrium to outline the area-at-risk (AAR) after which the animals' hearts were arrested with potassium chloride and rapidly excised. Hearts were sectioned into 6 transverse slices parallel to the atrioventricular ring. Consecutive slices were alternatively collected for infarct size analysis (triphenyl tetrazolium chloride) and molecular studies of the ischemic and non-ischemic myocardium. Tissue samples obtained from the ischemic and non-ischemic myocardium all animals were pulverized and homogenized in Tripure® or lysis buffer for RNA and protein isolation, respectively. Protein levels of apoptosis markers (truncated-caspase-3) was assessed. Paraffin-embedded ischemic myocardial tissue of all animals was cut into 5-μm-thick slices for 8-hydroxyguanosine staining (Abcam ab48508), a measurement indicative of oxidative stress-induced DNA-damage, and OCT-embedded ischemic myocardial tissue of all animals was stained for neutrophil detection (anti-Neutrophil Elastase; Abcam). Staining was calculated by a single blinded observer from an average of 5-fields/animal as % of stained area. Images were captured by Nikon Eclipse 80i microscope and digitized by Retiga 1300i Fast camera. In addition, mitochondrial membrane potential (Δψm) was measured in the ischemic myocardium of all animals by flow cytometry using the ratiometric dye 5,5′,6,6′-tetrachloro-1,1′,3,3′-tetraethylbenzimidazol carbocyanine iodide (JC-1; Molecular Probes). Values were expressed as red fluorescence activity. Isolated mitochondria treated with valinomycin (Sigma), which decreases Δψm, were used as control (data not shown).

[14] = 30, 60 and 90 min after MI induction, vs controls
[15] = 90 min ischemic period, vs absence of treatment
[16] = ischemic myocardium, vs non-treated pigs
[17] = prior (0 min) or post (90 min) ischemic induction
[18] = ischemic myocardial tissue, 2.5 h reperfusion

Compound: CC(ONC(=O)c1cc(C(F)(F)F)cc(C(F)(F)F)c1)C(=O)Nc1ccc(Cl)cc1 (stereo not drawn) [CCG1423]
- reduction of oxidative damage (8-OH-dG staining) within the ischemic myocardium [1]: 70%
- reduction of size of infarction (% of total LV wall) [1]: around 50%

Compound: c1cc(-c2cnn3cc(-c4ccc(OCCN5CCCCC5)cc4)cnc23)ccn1 [Compound C]
- effect on infarct size reduction achieved by atorvastatin [2]: abolished
- effect on protection against oxidative damage (8-OHdG staining) [2]: abolished

Compound: CC(C)c1c(C(=O)Nc2ccccc2)c(-c2ccccc2)c(-c2ccc(F)cc2)n1CC[C@@H](O)C[C@@H](O)CC(=O)O [atorvastatin]
- total amount of RhoA protein in the ischemic myocardium ([3]; 0.3 mg/kg i.v. at 15 min of ischemia, tissue at 90 min): not affected
- RhoA activation in the ischemic myocardium ([3]; single dose after the onset of ischemia, infarcted pigs): inhibits
- total protein content of AMPK ([4]; entire heart): No changes
- levels of P-AMPK ([4]; ischemic myocardium): significantly increased
- levels of P-AMPK ([4]; non-ischemic cardiac tissue): No changes
- reduction in neutrophil myocardial infiltration [5]: 57%
- reduction of size of infarction (% of total LV wall) [1]: around 50%
- IMA (Ischemic Modified Albumin) blood levels [6, 14]: significantly reduced
- Myoglobin blood levels [6, 14]: significantly reduced
- overall reduction of CFABP levels [6, 15]: more than 75%
- overall reduction of IMA levels [6, 15]: more than 50%
- overall reduction of myoglobin levels [6, 15]: more than 75%
- MCP-1 mRNA expression [7, 16]: significantly reduced
- MCP-1 protein expression [7, 16]: significantly reduced
- MCP-1 expression ([7]; non-ischemic myocardial tissue): No changes
- levels of cleaved (active) caspase 3 ([8]; ischemic myocardium): reduced
- total caspase-3 ([8]; myocardium): no changes
- CFABP ([9]; already at 30 min): significant reduction
- IMA ([9]; already at 30 min): significant reduction
- Myoglobin ([9]; already at 30 min): significant reduction
- Percentage of reduction of CFABP ([9]; vs control): 60-75%
- Percentage of reduction of IMA ([9]; vs control): 60-75%
- Percentage of reduction of Myoglobin ([9]; vs control): 60-75%
- reduction in scar size [10]: 60%
- ischemia-induced eNOS activation (P-eNOS/eNOS) [11]: did not further enhance
- ischemia-triggered increase in MCP-1 expression, gene level ([12]; PBMC): markedly attenuated
- ischemia-triggered increase in MCP-1 expression, protein level ([12]; PBMC): markedly attenuated
- TF PBMC expression (mRNA) [12, 17]: did not modify
- TLR4 PBMC expression (mRNA) [12, 17]: did not modify

- expression of cleaved caspase-3 [13, 18]: significantly reduced
Compound: CCC(C)(C)C(=O)OC1CC(C)C=C2C=CC(C)C(CCC(O)CC(O)CC(=O)O)C21 (stereo not drawn) [β-OH-simvastatin, β-hydroxy acid form of simvastatin]
- reduction of size of infarction (% of total LV wall) [1]: around 50%
- size of myocardial damage (ischemic damage+reperfusion damage; infarct size) ([13]; assessed 2.5 h after reperfusion): decreased
- mitochondrial potential (JC-1) [13, 18]: preserved
- oxidative stress (8-hydroxyguanosine staining) [13, 18]: decreased
- recruitment of neutrophils [13, 18]: limited

Reference: patent US20200030288A1, “STATIN FOR PREVENTION/REDUCTION OF ISCHEMIA-RELATED DAMAGE” (Fundacio Institut De Recerca De L'Hospial De La Santa Creu …, priority 2017, published 2020)
